Reference: patent publication US20250064733A1, “USE OF PEG-BASED INTERPOLYMER COMPLEXES FOR IMPROVED SOLUBILIZATION F BCS CLASS II DRUGS” (Dow Global Technologies LLC, priority 2022, published 2025)

Assay: Apparent aqueous solubility of drug in 1% polymer solution (30 min standing, centrifugation, HPLC of supernatant)
Format: physicochemical
Conditions: water without polymer; reference value for the increase; read-out: aqueous probucol solubility
Description: The following materials are used. The polyacrylic acid (PAA) has a molecular weight of about 1800, the polyethylene glycol used has either a molecular weight of 4000 or 8000 (as indicated in Table I below). The API chosen is either Probucol (>98% purity) or Ketoprofen (>98% purity). Each polymer or polymer combination shown in Table 1 is added to water in an amount to form 1% polymer solutions. Concentrated API solutions in methanol are prepared by adding 0.2 grams of drug to 10 ml of methanol (20 g/L of drug in methanol).
For each example in Table 1, 912 μl of the indicated polymer solution is transferred into individual vials. Then, 48 μl of drug solution in methanol is added to the polymer solution. These mixtures are agitated via three cycles of aspiration and dispensing using the EVO 200 pipettes. […]
The solubilized drug concentration in each taken aliquot was determined by reverse phase high-performance liquid chromatography (HPLC) analysis. […]
The drug concentration is determined from the measured elution profile by using a linear calibration curve for the respective drug, which was generated by determining the least squares fit of a straight line that described the relation between the concentration of four solutions of known concentrations (about 250, 500, 750, and 1000 mg/L) and the respective peak area integral after injection of 2 μL of each drug in methanol. […]

solubility at 30 min: 0.042 µg/mL
SMILES: CC(C)(Sc1cc(C(C)(C)C)c(O)c(C(C)(C)C)c1)Sc1cc(C(C)(C)C)c(O)c(C(C)(C)C)c1 [control, Probucol]
